US8952158B2, “Tricyclic compound and use thereof” (Ono Pharmaceutical Co., Ltd., priority 2004, dated 2015)

What was measured:
Wistar male rat [1] = test: Competition experiment of MBR ligand (psychological stressor, number of dejection); type: in vivo
Description: Using a Wistar male rat, psychological stressor similar to that in Biological Example 2 described above was loaded. Each treatment group was set as follows: a medium was intravenously administered (treatment group 1), the compound of the present invention (the compound of Example 38) was intravenously administered at a dose of 0.1 mg/kg (treatment group 2), an MBR selective agonist (CB34) was intravenously administered at a dose of 1 mg/kg (treatment group 3), or after the compound of the present invention (the compound of Example 38) was intravenously administered at a dose of 0.1 mg/kg, an MBR selective agonist was intravenously administered at a dose of 0.1 mg/kg (treatment group 4). In each group, stressor loading was initiated 10 minutes after administration, and the number of dejection was counted one hour later (10 animals in each group).

MBR = molecular target: T1, MBR (Rattus norvegicus, UniProt P16257); test: Receptor binding experiment ([3H]PK11195 competition); conditions: [3H]PK11195, rat membrana cerebri specimen; Cheng and Prusoff
T1 construct: A Wistar male rat was decapitated and the whole brain was extirpated, and then the cerebellum was removed; from tissue; host or cells: Wistar male rat brain (cerebellum removed), crude membrane preparation
Description: Affinity of the compound of the present invention for MBR was measured using a rat membrana cerebri specimen. The measuring method of the present invention has improved measurement accuracy and measurement sensitivity so as to evaluate the compound of the present invention as follows. A Wistar male rat was decapitated and the whole brain was extirpated, and then the cerebellum was removed. For the rat membrana cerebri specimen used in the binding experiment, 50 mmol/L of an ice-cold Iris-hydrochloric acid buffer (pH 7.4) was added and it was homogenized and centrifuged. After the resulting deposit was washed, it was resuspended to be prepared to about 1 mg/ml. The binding experiment was conducted using [^3H]PK11195 as an MBR selective ligand.
In the case of calculating the all binding amount in a saturation experiment, the membrane specimen, [^3H]PK11195 at several concentrations, dimethyl sulfoxide (DMSO) in a final concentration of 0.5 vol %, and 50 mmol/L of a tris-hydrochloric acid buffer (pH 7.4) were mixed (all amount 200 μl), followed by incubation at room temperature for one hour. In the case of calculating the nonspecific binding amount, […] in a final concentration of 20 ptrnol/L was added instead of DMSO, followed by incubation for one hour. […] After the filter was dried, radioactivity was measured by a liquid scintillation counter. […]

Wistar male rat [2] = test: Study on antistress effect (1): psychological stressor, number of dejection; type: in vivo; conditions: 30 min before stressor, counted one hour later
Description: Psychological stressor was loaded using a Wistar male rat (Brain Res. 1994; 641: pp. 21-28). Water was accumulated by the depth of about 10 cm in a container having a platform in the center. Thirty-minutes after a medium or the compound of the present invention (the compound of Example 38) was intravenously administered at a dose of 0.01 mg/kg or orally administered at a dose of 1 mg/kg, stressor loading was initiated, and one hour later, the number of dejection was counted (10 animals in each group). The rat administered the compound of the present invention and the rat to which the stress or was not loaded had little dejection after one hour.

[3] = system: male Sprague-Dawley (SD) rat; test: Study on antistress effect (2): physical (restraint) stressor, number of dejection; type: in vivo; conditions: oral 1 mg/kg, 30 min before restraint; 60 minutes after initiation of stressor loading
Description: Physical stressor was loaded using a male Sprague-Dawley (SD) rat (CHARLES RIVER LABORATORIES JAPAN, INC., 7 week old at being used) (Gastroenterology 1988; 94: pp. 611-622; Jpn. J. Phrmacol. 1998; 77: pp. 211-217). Thirty minutes after a medium (0.5% Tween 80 physiological saline) or the compound of the present invention (the compound of Example 38) was orally administered at a dose of 1 mg/kg, stressor loading was initiated by restraining both anterior branches of the rat with a binding band (Marvel Ltd.). Evaluation was performed by measuring the number of dejection 30 and 60 minutes after the initiation of stressor loading (15 animals in each group).

[4] = Oral absorbability of rat; type: in vivo; conditions: plasma; fasted SD male rat; oral 1 mg/kg vs intravenous 0.1 mg/kg; from AUC; read-out: Bioavailability (B.A.)
Description: Using a fasted SD male rat (CHARLES RIVER LABORATORIES JAPAN, INC.), under the condition that the compound of the present invention (the compound of Example 38) was solubilized, the plasma concentration after administration in the tail vein at a dose of 0.1 mg/kg and the plasma concentration after gastric gavage administration at a dose of 1 mg/kg were measured. The blood was collected from a rat jugular vein under an unanesthetized condition 5, 15, and 30 minutes, and 1, 2, 3, 4, 6, and 8 hours after intravenous administration, and 15 and 30 minutes, and 1, 2, 3, 4, 6, and 8 hours after oral administration. Then the blood was centrifuged at 3000 rpm for 10 minutes and the supernatant was collected as plasma. The concentration of the compound in plasma was measured with LC/MS/MS (1100 HPLC System (Agilent Co. Ltd.), API 4000 (MDS SCIEX Ltd.)). From the obtained plasma concentration, an area under the curve (AUC, ngh/ml) and a maximum plasma concentration (Cmax, ng/mL) were calculated. In addition, Bioavailability (B.A.) of the compound of the present invention was calculated from AUC in oral administration and AUC in intravenous administration.

Wistar male rat [5] = test: Inhibitory action on abdominal pain in RCS loading model; type: in vivo; conditions: oral 1 mg/kg twice a day, RCS 4 days, balloon 0-1.2 mL, versus medium treatment group (FIG. 1)
Excerpt: A Wistar male rat (6 week old at being received) was anesthetized with pentobarbital sodium (Kyoritsu Seiyaku Corporation), its abdomen was incised and the abdominal muscle was exposed, and then Force Transducer (F-12IS-SL (STAR MEDICAL Ltd.)) was fitted. Penicillin was intramuscular administered after the operation, and a recuperative period of 5 days was set.
During from AM 9:00 to PM 5:00 on a 1st day of the initiation of stress loading, the feeding environment temperature was alternately changed to 24° C. and 2° C. in an hour interval, and during from PM 5:00 to AM 9:00 in the next morning, the rat was fed under the environment of 2° C. […]
After RCS was loaded for 4 days, abdominal pain evaluation was performed on a 5th day (10 to 12 animals in each group). […] Contraction of abdominal muscle for extension stimulation in each balloon liquid amount was recorded using the Chart software (Chart v5.0.2. (ADInstruments Inc.)) by passing the signal from the pressure transducer amplified by the amplifier (Windo Gragf (GOULD Inc.)) through the data collection system (PowerLab (ADInstruments Inc.)). During 5 minutes in which balloon extension stimulation was loaded, the number of signals from the pressure transducer in 3 minutes was counted, and the obtained number was regarded as the number of abdominal muscle contraction and set as the index of abdominal pain.

Compound	the number of dejection: mean number (Wistar male rat [1]; treatment group 3: intravenous 1 mg/kg, stressor 10 min after administration, counted one hour later)	Ki (MBR)	the number of dejection: mean number (Wistar male rat [2]; intravenous administration 0.01 mg/kg)	the number of dejection: mean number (Wistar male rat [2]; oral administration 1 mg/kg)	the number of dejection: mean number [3]	bioavailability [4]	the number of dejection: mean number (Wistar male rat [1]; treatment group 2: intravenous 0.1 mg/kg, stressor 10 min after administration, counted one hour later)	the number of dejection: mean number (Wistar male rat [1]; treatment group 4: Example 38 intravenous 0.1 mg/kg, then MBR selective agonist (CB34) intravenous 0.1 mg/kg)	number of abdominal muscle contraction (index of abdominal pain) (Wistar male rat [5])
CCCN(CCC)C(=O)c1c(-c2ccc(Cl)cc2)nc2cc(Cl)cc(Cl)n12 [CB34, 5,7-dichloro-2-(4-chlorophenyl)-3-dipropylaminocarbonylimidazo[1,2-a]pyridine, reference compound]	9.5	–	–	–	–	–	–	–	–
COc1cc(Cl)ccc1[C@H]1c2[nH]c3cccc(F)c3c2C2(CC2)CN1C(C)=O [Example 38, (1S)-2-acetyl-1-(4-chloro-2-methoxyphenyl)-5-fluoro-1,2,3,9-tetrahydrospiro[β-carboline-4,1′-cyclopropane]]	–	0.08 nM	8.2	6.2	7.5	86.9%	7.3	10.1	significantly inhibited
